Patent US11272709B2, “Amidine substituted benzoyl derivatives useful as herbicides” (Syngenta Participations AG, priority 2018, dated 2022)

Experiments:
Assay type in all cases: in vivo
[1] = Comparative experiment, compound 1.049 versus Compound C1, (%) phytotoxicity observed (Table B2); settings: rate 31 g/ha; for (%) phytotoxicity observed, POST Application ECHCG / (%) phytotoxicity observed, PRE Application ECHCG: Echinochloa crus-galli (ECHCG); for (%) phytotoxicity observed, POST Application SETFA / (%) phytotoxicity observed, PRE Application SETFA: Setaria faberi (SETFA)
Procedure: Seeds of a variety of test species are sown in standard soil in pots (Lolium perenne (LOLPE), Amaranthus retoflexus (AMARE), Abutilon theophrasti (ABUTH), Setaria faberi (SETFA), Echinochloa crus-galli (ECHCG), Ipomoea hederacea (IPOHE)). After cultivation for one day (pre-emergence) or after 8 days cultivation (post-emergence) under controlled conditions in a glasshouse (at 24/16° C., day/night; 14 hours light; 65% humidity), the plants are sprayed with an aqueous spray solution derived from the formulation of the technical active ingredient in acetone/water (50:50) solution containing 0.5% Tween 20 (polyoxyethelyene sorbitan monolaurate, CAS RN 9005-64-5). Compounds are applied at […] unless otherwise indicated. The test plants are then grown in a glasshouse under controlled conditions in a glasshouse (at 24/16° C., day/night; 14 hours light; 65% humidity) and watered twice daily. After 13 days for pre and post-emergence, the test is evaluated for the percentage damage caused to the plant. The biological activities are shown in the following table on a five point scale (5=80-100%; 4=60-79%; 3=40-59%; 2=20-39%; 1=0-19%). [table]

[2] = test system: Amaranthus retoflexus (AMARE); assay: Post-emergence herbicidal glasshouse test, Amaranthus retoflexus (AMARE); settings: 500 g/h, evaluated after 13 days
Summary of the method: (§1)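 Plants sprayed 1 day (pre-emergence) or 8 days (post-emergence) after sowing, at 500 g/h unless indicated, in acetone/water (50:50) with 0.5% Tween 20. Glasshouse 24/16 °C, 14 h light, 65% humidity. Damage scored at 13 days on a five-point scale (5=80-100% to 1=0-19%).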

[3] = test system: Echinochloa crus-galli (ECHCG); assay: Pre-emergence herbicidal glasshouse test, Echinochloa crus-galli (ECHCG); settings: 500 g/h, evaluated after 13 days
Summary of the method: as §1

[4] = test system: Ipomoea hederacea (IPOHE); assay: Post-emergence herbicidal glasshouse test, Ipomoea hederacea (IPOHE); settings: 500 g/h, evaluated after 13 days
Summary of the method: as §1

[5] = test system: Abutilon theophrasti (ABUTH); assay: Post-emergence herbicidal glasshouse test, Abutilon theophrasti (ABUTH); settings: 500 g/h, evaluated after 13 days
Summary of the method: as §1

[6] = test system: Setaria faberi (SETFA); assay: Post-emergence herbicidal glasshouse test, Setaria faberi (SETFA); settings: 500 g/h, evaluated after 13 days
Summary of the method: as §1

[7] = test system: Amaranthus retoflexus (AMARE); assay: Pre-emergence herbicidal glasshouse test, Amaranthus retoflexus (AMARE); settings: 500 g/h, evaluated after 13 days
Summary of the method: as §1

[8] = test system: Setaria faberi (SETFA); assay: Pre-emergence herbicidal glasshouse test, Setaria faberi (SETFA); settings: 500 g/h, evaluated after 13 days
Summary of the method: as §1

[9] = test system: Abutilon theophrasti (ABUTH); assay: Pre-emergence herbicidal glasshouse test, Abutilon theophrasti (ABUTH); settings: 500 g/h, evaluated after 13 days
Summary of the method: as §1

[10] = test system: Ipomoea hederacea (IPOHE); assay: Pre-emergence herbicidal glasshouse test, Ipomoea hederacea (IPOHE); settings: 500 g/h, evaluated after 13 days
Summary of the method: as §1

[11] = test system: Echinochloa crus-galli (ECHCG); assay: Post-emergence herbicidal glasshouse test, Echinochloa crus-galli (ECHCG); settings: 500 g/h, evaluated after 13 days
Summary of the method: as §1

Structure (SMILES) | (%) phytotoxicity observed, POST Application ECHCG [1] [%] | (%) phytotoxicity observed, PRE Application ECHCG [1] [%] | (%) phytotoxicity observed, POST Application SETFA [1] [%] | (%) phytotoxicity observed, PRE Application SETFA [1] [%] | POST Application AMARE, percentage damage (five point scale) [2] | PRE Application ECHCG, percentage damage (five point scale) [3] | POST Application IPOHE, percentage damage (five point scale) [4] | POST Application ABUTH, percentage damage (five point scale) [5] | POST Application SETFA, percentage damage (five point scale) [6] | PRE Application AMARE, percentage damage (five point scale) [7] | PRE Application SETFA, percentage damage (five point scale) [8] | PRE Application ABUTH, percentage damage (five point scale) [9] | PRE Application IPOHE, percentage damage (five point scale) [10] | POST Application ECHCG, percentage damage (five point scale) [11]
Cn1nnnc1NC(=O)c1ccc(C(F)(F)F)c(N)c1Cl [Cl] | 0 | 0 | 20 | 0 |  |  |  |  |  |  |  |  |  | 
CN(C)C=Nc1c(C(F)(F)F)ccc(C(=O)Nc2nnnn2C)c1Cl [Compound 1.049] | 90 | 90 | 90 | 90 | 5 (5=80-100%) | 5 (5=80-100%) | 5 (5=80-100%) | 5 (5=80-100%) | 5 (5=80-100%) | 5 (5=80-100%) | 5 (5=80-100%) | 5 (5=80-100%) | 5 (5=80-100%) | 5 (5=80-100%)
CN(C=Nc1c(C(F)(F)F)ccc(C(=O)C2=C(O)CCCC2=O)c1Cl)CC(F)(F)F [Compound 3.130] |  |  |  |  | 5 (5=80-100%) | 5 (5=80-100%) | 4 (4=60-79%) | 5 (5=80-100%) | 5 (5=80-100%) | 5 (5=80-100%) | 5 (5=80-100%) | 5 (5=80-100%) | 5 (5=80-100%) | 5 (5=80-100%)
CON=C(C)N(C)Cc1c(C(F)(F)F)ccc(C(=O)Nc2nnnn2C)c1Cl [Compound 4.014] |  |  |  |  | 5 (5=80-100%) | 5 (5=80-100%) | 5 (5=80-100%) | 5 (5=80-100%) | 5 (5=80-100%) | 5 (5=80-100%) | 5 (5=80-100%) | 5 (5=80-100%) | 5 (5=80-100%) | 5 (5=80-100%)
CON=C(C)N(C)Cc1c(S(C)(=O)=O)ccc(C(=O)Nc2nnnn2C)c1Cl [Compound 4.016, 2-chloro-3-[[[N-methoxy-C-methyl-carbonimidoyl]-methyl-amino]methyl]-4-methylsulfonyl-N-(1-methyltetrazol-5-yl)benzamide] |  |  |  |  | 4 (4=60-79%) | 5 (5=80-100%) | 4 (4=60-79%) | 3 (3=40-59%) | 5 (5=80-100%) | 5 (5=80-100%) | 5 (5=80-100%) | 5 (5=80-100%) | 5 (5=80-100%) | 5 (5=80-100%)
CON=C(C)N(C)Cc1c(S(C)(=O)=O)ccc(C(=O)Nc2nnc(C)o2)c1Cl [Compound 5.016] |  |  |  |  | 4 (4=60-79%) | 5 (5=80-100%) | 4 (4=60-79%) | 3 (3=40-59%) | 5 (5=80-100%) | 5 (5=80-100%) | 5 (5=80-100%) | 5 (5=80-100%) | 5 (5=80-100%) | 5 (5=80-100%)
CCCn1nnnc1NC(=O)c1ccc(S(C)(=O)=O)c(N=CN(C)C)c1C [Compound 7.002] |  |  |  |  | 5 (5=80-100%) | 5 (5=80-100%) | 4 (4=60-79%) | 5 (5=80-100%) | 5 (5=80-100%) | 5 (5=80-100%) | 5 (5=80-100%) | 5 (5=80-100%) | 5 (5=80-100%) | 5 (5=80-100%)
COCCn1nnnc1NC(=O)c1ccc(S(C)(=O)=O)c(N=CN(C)C)c1C [Compound 7.003] |  |  |  |  | 5 (5=80-100%) | 5 (5=80-100%) | 5 (5=80-100%) | 5 (5=80-100%) | 5 (5=80-100%) | 5 (5=80-100%) | 5 (5=80-100%) | 5 (5=80-100%) | 5 (5=80-100%) | 5 (5=80-100%)
